In patent US7001926B2, “Tubulin binding agents and corresponding prodrug constructs” (Oxigene, Inc., priority 2000, dated 2006):
Read-outs that look alike come from different tables or passages of the source.

Assays:
[1] = system: tubulin; test: Inhibition of tubulin polymerization assay; type: biochemical; conditions: read-out: IC50, In Vitro Inhibition of Tubulin Polymerization; purified bovine brain tubulin, 15 min preincubation at 37° C.
Description: IC50 values for tubulin polymerization were determined according to a previously described procedure (Bai et al, Cancer Research, 1996). Purified tubulin is obtained from bovine brain cells as described in Hamel and Lin (Hamel and Lin, Biochemistry, 1984). Various amounts of inhibitor were preincubated for 15 minutes at 37° C. with purified tubulin. After the incubation period, the reaction was cooled and GTP was added to induce tubulin polymerization. Polymerization was then monitored in a Gilford spectrophotometer at 350 nm. The final reaction mixtures (0.25 ml) contained 1.5 mg/ml tubulin, 0.6 mg/ml microtubule-associated proteins (MAPs), 0.5 mM GTP, 0.5 mM MgCl2, 4% DMSO and 0.1M 4-morpholineethanesulfonate buffer (MES, pH 6.4).

[2] = system: NCI-H460; test: Growth inhibition, NCI-H460 non-small cell lung cancer cell line (SRB); type: cell-based, human; conditions: lung-NSC, 48 hours
Description: (§1) Briefly, the cell suspensions, diluted according to the particular cell type and the expected target cell density (5,000–40,000 cells per well based on cell growth characteristics), were added by pipet (100 μl) to 96-well microtiter plates. Inoculates were allowed a preincubation time of 24–28 hours at 37° C. for stabilization. Incubation with the inhibitor compounds lasted for 48 hours in 5% CO2 atmosphere and 100% humidity. Determination of cell growth was performed by in situ fixation of cells, followed by staining with a protein-binding dye sulforhodamine B (SRB), which binds to the basic amino acids of cellular macromolecules. The solubilized stain was measured spectrophotometrically.
(§2) Several compounds were evaluated for cytotoxic activity against […] P388 leukemia cell lines. […] These and additional compounds were evaluated in terms of growth inhibitory activity against several other human cancer cell lines including: central nervous system (“CNS”, SF-295), pancreas (BXPC-3), non-small cell lung cancer (“lung-NSC”, NCI-H460), breast (MCF-7), colon (KM20L2), and prostate (DU-145).

[3] = system: KM20L2; test: Growth inhibition, KM20L2 colon cancer cell line (SRB); type: cell-based, human; conditions: 48 hours
Description: as §1, §2

[4] = system: DU-145; test: Growth inhibition, DU-145 prostate cancer cell line (SRB); type: cell-based, human; conditions: 48 hours
Description: as §1, §2

[5] = system: BXPC-3; test: Growth inhibition, BXPC-3 pancreas cancer cell line (SRB); type: cell-based, human; conditions: 48 hours
Description: as §1, §2

[6] = system: MCF-7; test: Growth inhibition, MCF-7 breast cancer cell line (SRB); type: cell-based, human; conditions: 48 hours
Description: as §1, §2

[7] = system: SF-295; test: Growth inhibition, SF-295 CNS cancer cell line (SRB); type: cell-based, human; conditions: 48 hours
Description: as §1, §2

[8] = system: murine hemangioendothelioma MHEC-5T cell line; test: In vitro antiproliferative activity, MTT assay; type: cell-based
Description: The following compounds were tested for in vitro antiproliferative activity against the murine hemangioendothelioma MHEC-5T cell line using a standard MTT assay (see Mosman, J. Immunol. Methods, 1983). In actively proliferating cells, an increase in MTT conversion is spectrophotometrically quantified by the reduction of MTT (3-[4,5-dimethylthiazol-2-yl]-2,5-diphenyl tetrazolium bromide) to the insoluble formazan dye by enzymes associated with metabolic activity. A compound with growth inhibitory activity will cause a reduction in dye formation relative to cells exposed to a vehicle control.

[9] = system: MDA-MB-231 human breast adenocarcinoma; test: Tumor growth control in vivo; design: species or system SCID mice
Description: The antitumor activity of C-5 dihydronaphthalene phosphate prodrug, Oxi-com 197, was assessed in tumor-bearing mice by measuring its effects on tumor volume in comparison with CA4P. A human breast adenocarcinoma model was established by subcutaneous injection of cultured MDA-MB-231 cells in Fox Chase CB-17 SCID mice. When the average tumor size reached 50–100 mm^3, mice were randomly divided into several groups (n=10) with no significant difference in body weight and tumor size. Mice were administered CA4P or Oxi-com 197 in saline carrier at doses of 25, 50 or 100 mg/kg by daily intraperitoneal (i.p.) injection for 5 consecutive days (Q1×5). Saline carrier only was used as the control treatment. On Day 3, 7, 10, 13, 17 and 23, tumors were excised from animals in each treatment group (n=2) and measured by width and length. Tumor volume was calculated according to the following formula: Length×Width^2×0.4. The dosage effects of Oxi-com 197 is illustrated in FIG. 14.

[10] = system: MHEC-5T hemangioendothelioma tumor; test: Inhibition of tumor blood flow, Fluorescent Bead Assay; type: in vivo, SCID mice; conditions: for % VAPM (vessel area per tumor tissue area as a percentage of the control) / % VNPM (vessel number per tumor tissue area as a percentage of the control): 24 hours post-treatment
Description: The antivascular effects of the C-5 dihydronaphthalene phosphate prodrug Oxi-com 197, 43 was assessed in tumor-bearing mice using a Fluorescent Bead Assay. A MHEC-5T hemangioendothelioma tumor model was established by subcutaneous injection of 0.5×10^6 cultured transformed cell murine myocardial vascular endothelial cell line (“MHEC5-T”) cells into the right flank of Fox Chase CB-17 Severe Combined Immunodeficient (“SCID”) mice. When transplanted tumors reached a size of 500 mm^3 (a size without development of necrosis), the mice received a single intraperitoneal (i.p.) injection of saline control or compound at doses ranging from 3.2 to 25 mg/kg. At 24 hours post-treatment, mice were injected intravenously with 0.25 ml of diluted FluoSphere beads (1:6 in physiological saline) in the tail vein, sacrificed after 3 minutes, and tumor was excised for cryosectioning. Tumor cryosections at a thickness of 8 um were directly examined using quantitative fluorescent microscopy. Blood vessels were indicated by blue fluorescence from injected beads. For quantification, image analysis of 3 sections from three tumors treated in each group were examined and vascular shutdown was expressed as vessel area (mm^2) per tumor tissue area (mm^2) as a percentage of the control (“% VAPM”) and as vessel number per tumor tissue area (mm^2) as a percentage of the control (“% VNPM”). The results as shown in Table 11 indicate a clear dose-dependent effect of the agent on tumor blood flow as indicated by the reduction in blood vessel number and vessel area. Administration of a 25 mg/kg dose of Oxi-com 197 was particularly effective, causing a 90% reduction in tumor vessel number relative to the control.
Additional compounds of the present invention were tested for antivascular effects at two dosages (100 mg/kg and 10 mg/kg) using the same Fluorescent Bead Assay as in the previous experiment.

[11] = 5 days, read-out: IC50 at 5 days
[12] = read-out: IC50 at 1 hour, 1 hour

`CCOP(=O)(Nc1c(OC)ccc2c1CCC=C2c1cc(OC)c(OC)c(OC)c1)OCC` [Oxi-com 143, 6-methoxy-1-(3′,4′,5′-trimethoxyphenyl)-5-diethylphosphoramidate-3,4-dihydronapthalene] was tested, and the IC50 [1] was greater than 40 µM.

With `COc1cc2c(cc1O)C(c1cc(OC)c(OC)c(OC)c1)=CCC2` [Oxi-com 158] the “GI50 for Cell Line NCI-H460” value [2] was 3.2 µg/mL, the “GI50 for Cell Line KM20L2” value [3] was 2.6 µg/mL and the “GI50 for Cell Line DU-145” value [4] was 3.4 µg/mL. The “GI50 for Cell Line BXPC-3” value [5] was 1.8 µg/mL, the “GI50 for Cell Line MCF-7” value [6] was 1.5 µg/mL and the “GI50 for Cell Line SF-295” value [7] was 5.4 µg/mL.

For `COc1cc(C2=CCCc3c2ccc(OC)c3OP(=O)([O-])[O-])cc(OC)c1OC.[Na+].[Na+]` [Oxi-com 197], the “GI50 for Cell Line NCI-H460” value [2] was 0.011 µg/mL, the IC50 [8, 11] was 3 nM and the IC50 [8, 12] was 100 nM. For the same compound, the “GI50 for Cell Line KM20L2” value [3] was 0.33 µg/mL, the “tumor growth (tumor volume) relative to control treatment” value ([9]; 25, 50, and 100 mg/kg i.p. daily for 5 days (Q1×5)) was “significantly inhibited tumor growth” and the “antitumor activity relative to CA4P” value ([9]; MDA-MB-231 model, i.p. Q1×5) was “enhanced antitumor activity relative to CA4P”. The “GI50 for Cell Line DU-145” value [4] was 0.0055 µg/mL, the “GI50 for Cell Line BXPC-3” value [5] was 0.28 µg/mL and the “GI50 for Cell Line MCF-7” value [6] was 0.0045 µg/mL. The “GI50 for Cell Line SF-295” value [7] was 0.0033 µg/mL, the “% VAPM (vessel area per tumor tissue area as a percentage of the control)” value ([10]; 6.3 mg/kg single i.p.) was 65.4 ± 4.9% and the “% VNPM (vessel number per tumor tissue area as a percentage of the control)” value ([10]; 6.3 mg/kg single i.p.) was 66.5 ± 0.5%. For the same compound, the “% VAPM (vessel area per tumor tissue area as a percentage of the control)” value ([10]; 12.5 mg/kg single i.p.) was 32.2 ± 6.8%, the “% VNPM (vessel number per tumor tissue area as a percentage of the control)” value ([10]; 12.5 mg/kg single i.p.) was 55.5 ± 0.8% and the “reduction in tumor vessel number relative to the control” value ([10]; 25 mg/kg dose) was 90%. The “% VAPM (vessel area per tumor tissue area as a percentage of the control)” value ([10]; 25 mg/kg single i.p.) was 13.0 ± 5.0% and the “% VNPM (vessel number per tumor tissue area as a percentage of the control)” value ([10]; 25 mg/kg single i.p.) was 10.4 ± 6.3%.

In the case of `COc1cc(C2=CCCc3c2cc(OP(=O)(O)O)c(OC)c3OP(=O)(O)O)cc(OC)c1OC` [Oxi-com 199], the IC50 [1] is reported as greater than 40 µM, the IC50 [8, 11] is reported as greater than 44800 nM and the IC50 [8, 12] is reported as greater than 44800 nM.

Compound `COc1cc(C2=CCCc3c2cc(O)c(OC)c3O)cc(OC)c1OC` [Oxi-com 200] has an IC50 [8, 11] of 16200 nM and an IC50 [8, 12] greater than 50000 nM.

`COc1cc(C(=O)C2=CCCc3c2ccc(OC)c3OP(=O)([O-])[O-])cc(OC)c1OC.[Na+].[Na+]` [Oxi-com 224] was tested, and the IC50 [8, 11] was 3 nM, the IC50 [8, 12] was 400 nM and the “% VAPM at 10 mg/kg dose” value [10] was 17%. For the same compound, the “% VAPM at 100 mg/kg dose” value [10] was 46%.

For `COc1cc(C(=O)c2cccc3c(OP(=O)([O-])[O-])c(OC)ccc23)cc(OC)c1OC.[Na+].[Na+]` [Oxi-com 225], the IC50 [8, 11] was 5 nM, the IC50 [8, 12] was 400 nM and the “% VAPM at 10 mg/kg dose” value [10] was 35%. The “% VAPM at 100 mg/kg dose” value [10] was 60%.

In the case of `COc1ccc2c(c1NC(=O)[C@@H](N)CO)CCC=C2c1cc(OC)c(OC)c(OC)c1` [Oxi-com 229], the IC50 [8, 11] is reported as greater than 1400 nM and the IC50 [8, 12] is reported as greater than 44000 nM.

Compound `COc1ccc(C2=CCCc3c2ccc(OC)c3O)c(OC)c1` [Oxi-com 238] has an IC50 [8, 11] of 40 nM and an IC50 [8, 12] of 14000 nM.

With `COc1ccc(C2=CCCc3c2ccc(OC)c3OP(=O)(O)O)c(OC)c1` [Oxi-com 239] the IC50 [8, 11] was 60 nM and the IC50 [8, 12] was 2400 nM.

With `COc1ccc(OC)c(C2=CCCc3c2ccc(OC)c3O)c1` [Oxi-com 240] the IC50 [8, 11] was 30 nM and the IC50 [8, 12] was 8000 nM.

In the case of `COc1ccc(OC)c(C2=CCCc3c2ccc(OC)c3OP(=O)(O)O)c1` [Oxi-com 241], the IC50 [8, 11] is reported as 80 nM and the IC50 [8, 12] is reported as 2500 nM.

`COc1ccc(C2=CCCc3c2ccc(OC)c3OP(=O)(O)O)cc1OC` [Oxi-com 243] showed an IC50 [8, 11] of 300 nM and an IC50 [8, 12] of 20000 nM.
